Reference: patent US6589984B1, “Benzofurylpyrone derivatives” (Teijin Limited, priority 1998, dated 2003)

Test system: Human hepatic cancer cells HepG2
Assay: TG production inhibiting activity (14C-acetic acid incorporation into TG) in HepG2 cells
Assay type: cell-based
Settings: Homo sapiens, HepG2, group criterion
Experimental: Human hepatic cancer cells HepG2 were inoculated into a 24-well plate (Costar No. 3524) at 4×10^4 cells/well, and 1 ml of medium (eRDF medium containing 10% bovine serum (Kyokuto Chemical Co.)) was used for 6 day culturing with 5% CO2 at 37° C. After drawing off the supernatant medium, the cells were freshly rinsed with 1 ml of PBS(−) buffer solution (Takara Shuzo) and drawn off. This procedure was repeated twice and then 1 ml of fresh medium (eRDF medium) was added.
6-(benzofuran-2-yl)-3,5-dimethyl-4-hydroxy-2H-pyran-2-one (Example 2) was dissolved in dimethylsulfoxide (DMSO) to prepare a 20 mM sample stock solution. A diluted solution was obtained by diluting the sample solution with DMSO.
To the cells prepared above there were added the sample stock solution or its diluted solution at 5 μl per well and 10 μl of ^14C-acetic acid solution (a solution of Amersham Code No. CFA13 diluted 4.4-fold with PBS(−) buffer), and culturing was carried out for one day with 5% CO2 at 37° C.
After the culturing was completed, the culture solution was removed, and 1 ml of extraction solution (a mixture of n-hexane and isopropyl alcohol at 2:1) was added for extraction treatment on the lipid components in the cells. After the treatment, the extract containing the obtained lipid components was air-dried, the residue was redissolved in 20 μl of a mixed solution of n-hexane and ethyl acetate at 9:1, and the solution was spotted on a thin-layer chromatography plate (S319, Tokyo Kasei) and developed by thin-layer chromatography with the mixed solution mentioned above. After air-drying, the lipid components were colored with iodine vapor, the portion corresponding to TG was cut out, and the amount of TG biosynthesized was measured with a liquid scintillation counter.

[1] = alternatives: IC50 less than 10 μM, or at least 30% inhibition at 1 μM, or at least 50% inhibition at 10 μM
[2] = alternatives: IC50 at least 10 μM and less than 100 μM, or at least 5% and less than 30% inhibition at 1 μM, or at least 30% and less than 50% inhibition at 10 μM

For CC(=O)Oc1c(C)c(-c2cc3ccccc3o2)oc(=O)c1C [Example 1, 4-acetyloxy-6-(benzofuran-2-yl)-3,5-dimethyl-2H-pyran-2-one], which IC50 [1] is on record?
Its IC50 is < 10 µM.

Cc1c(-c2cc3ccccc3o2)oc(=O)c(C)c1OC(=O)c1ccccc1 [Example 3, 6-(benzofuran-2-yl)-4-benzoyloxy-3,5-dimethyl-2H-pyran-2-one] was tested. Which IC50 [1] did it give?
Its IC50 is < 10 µM.

Cc1c(-c2cc3ccccc3o2)oc(=O)c(C)c1OS(C)(=O)=O [Example 4, 6-(benzofuran-2-yl)-3,5-dimethyl-4-methanesulfonyloxy-2H-pyran-2-one] was tested. Which IC50 [1] did it give?
The IC50 was < 10 µM.

Cc1c(-c2cc3cc(C=O)ccc3o2)oc(=O)c(C)c1O [Example 7, 3,5-dimethyl-6-(5-formylbenzofuran-2-yl)-4-hydroxy-2H-pyran-2-one] was tested. Which IC50 [2] did it give?
Its IC50 is 10 to 100 µM.

For CC(=O)Oc1c(C)c(-c2cc3cc(C=O)ccc3o2)oc(=O)c1C [Example 8, 4-acetyloxy-3,5-dimethyl-6-(5-formylbenzofuran-2-yl)-2H-pyran-2-one], which IC50 [2] is on record?
Its IC50 is 10 to 100 µM.

With Cc1c(-c2cc3cc(C=C4SC(=O)NC4=O)ccc3o2)oc(=O)c(C)c1O [Example 9, 3,5-dimethyl-6-(5-((3,5-dioxo-2,4-thiazolidinylidene)methyl)benzofuran-2-yl)-4-hydroxy-2H-pyran-2-one] as the molecule, how does the IC50 [1] read?
The IC50 was < 10 µM.

How did the IC50 [1] turn out when CCCCCc1c(-c2cc3ccccc3o2)oc(=O)c(C)c1O [Example 11, 6-(benzofuran-2-yl)-4-hydroxy-3-methyl-5-n-pentyl-2H-pyran-2-one] was run?
The IC50 was < 10 µM.

With COc1ccc2oc(-c3oc(=O)c(C)c(O)c3C)cc2c1 [Example 12, 3,5-dimethyl-4-hydroxy-6-(5-methoxybenzofuran-2-yl)-2H-pyran-2-one] as the molecule, how does the IC50 [1] read?
The IC50 was < 10 µM.

COc1cccc2cc(-c3oc(=O)c(C)c(O)c3C)oc12 [Example 13, 3,5-dimethyl-4-hydroxy-6-(7-methoxybenzofuran-2-yl)-2H-pyran-2-one] was tested. Which IC50 [1] did it give?
The IC50 was < 10 µM.

For CC(=O)Oc1c(C)c(-c2cc3ccc(O)cc3o2)oc(=O)c1C [Example 18, 4-acetyloxy-3,5-dimethyl-6-(6-hydroxybenzofuran-2-yl)-2H-pyran-2-one], which IC50 [2] is on record?
Its IC50 is 10 to 100 µM.

With CC(=O)Oc1c(C)c(-c2cc3ccc(OS(=O)(=O)C(F)(F)F)cc3o2)oc(=O)c1C [Example 19, 4-acetyloxy-3 ,5-dimethyl-6-(6-(trifluoromethanesulfonyloxy)benzofuran-2-yl)-2H-pyran-2-one] as the molecule, how does the IC50 [1] read?
Its IC50 is < 10 µM.

With COC(=O)c1ccc2cc(-c3oc(=O)c(C)c(O)c3C)oc2c1 [Example 22, 3,5-dimethyl-4-hydroxy-6-(6-(methoxycarbonyl)benzofuran-2-yl)-2H-pyran-2-one] as the molecule, how does the IC50 [2] read?
The IC50 was 10 to 100 µM.

How did the IC50 [2] turn out when CC(=O)Oc1c(C)c(-c2cc3ccc(N(C)C)cc3o2)oc(=O)c1C [Example 23, 4-acetyloxy-3,5-dimethyl-6-(6-dimethylaminobenzofuran-2-yl)-2H-pyran-2-one] was run?
The IC50 was 10 to 100 µM.

With CC(=O)Oc1c(C)c(-c2cc3ccc(-c4ccco4)cc3o2)oc(=O)c1C [Example 24, 4-acetyloxy-3,5-dimethyl-6-(6-(2-furyl)benzofuran-2-yl)-2H-pyran-2-one] as the molecule, how does the IC50 [2] read?
The IC50 was 10 to 100 µM.

For CC(=O)Oc1c(C)c(-c2cc3ccc(-c4cccs4)cc3o2)oc(=O)c1C [Example 25, 4-acetyloxy-3,5-dimethyl-6-(6-(2-thienyl)benzofuran-2-yl)-2H-pyran-2-one], which IC50 [1] is on record?
The IC50 was < 10 µM.

For COc1ccc2cc(-c3oc(=O)c(C)c(O)c3C)oc2c1 [Example 26, 3,5-dimethyl-4-hydroxy-6-(6-methoxybenzofuran-2-yl)-2H-pyran-2-one], which IC50 [1] is on record?
The IC50 was < 10 µM.

Cc1c(-c2cc3cc(OCc4cncnc4)ccc3o2)oc(=O)c(C)c1O [Example 27, 3,5-dimethyl-4-hydroxy-6-(5-(5-pyrimidinylmethoxy)benzofuran-2-yl)-2H-pyran-2-one] was tested. Which IC50 [1] did it give?
The IC50 was < 10 µM.

Which IC50 [1] does the source give for Cc1c(-c2cc3ccccc3o2)oc(=O)c(C)c1OC(=O)c1ccc(CO)cc1 [Example 28, 6-(benzofuran-2-yl)-3,5-dimethyl-4-(4-hydroxymethylbenzoyloxy)-2H-pyran-2-one] here?
Its IC50 is < 10 µM.

With COc1ccc(C(=O)Oc2c(C)c(-c3cc4ccccc4o3)oc(=O)c2C)cc1 [Example 30, 6-(benzofuran-2-yl)-3,5-dimethyl-4-(4-methoxybenzoyloxy)-2H-pyran-2-one] as the molecule, how does the IC50 [1] read?
Its IC50 is < 10 µM.

With Cc1c(-c2cc3ccccc3o2)oc(=O)c(C)c1OC(=O)Cc1ccccc1 [Example 31, 6-(benzofuran-2-yl)-3,5-dimethyl-4-phenylacetyloxy-2H-pyran-2-one] as the molecule, how does the IC50 [1] read?
Its IC50 is < 10 µM.

With Cc1c(O)cc(-c2cc3ccccc3o2)oc1=O [Example 32, 6-(benzofuran-2-yl)-4-hydroxy-3-methyl-2H -pyran-2-one] as the molecule, how does the IC50 [2] read?
The IC50 was 10 to 100 µM.

For CCc1c(-c2cc3ccccc3o2)oc(=O)c(C)c1O [Example 33, 6-(benzofuran-2-yl)-5-ethyl-4-hydroxy-3-methyl-2H-pyran-2-one], which IC50 [1] is on record?
Its IC50 is < 10 µM.

How did the IC50 [1] turn out when Cc1c(O)c(C(C)C)c(-c2cc3ccccc3o2)oc1=O [Example 34, 6-(benzofuran-2-yl)-4-hydroxy-5-isopropyl-3-methyl-2H-pyran-2-one] was run?
Its IC50 is < 10 µM.

With Cc1c(O)c(-c2ccccc2)c(-c2cc3ccccc3o2)oc1=O [Example 35, 6-(benzofuran-2-yl)-4-hydroxy-3-methyl-5-phenyl-2H-pyran-2-one] as the molecule, how does the IC50 [2] read?
The IC50 was 10 to 100 µM.

Cc1c(O)c(Cc2ccccc2)c(-c2cc3ccccc3o2)oc1=O [Example 36, 6-(benzofuran-2-yl)-5-benzyl-4-hydroxy-3-methyl-2H-pyran-2-one] was tested. Which IC50 [1] did it give?
Its IC50 is < 10 µM.

COc1c(-c2cc3ccccc3o2)oc(=O)c(C)c1O [Example 37, 6-(benzofuran-2-yl)-4-hydroxy-5-methoxy-3-methyl-2H-pyran-2-one] was tested. Which IC50 [2] did it give?
The IC50 was 10 to 100 µM.

Which IC50 [2] does the source give for Cc1c(-c2cc3ccccc3o2)oc(=O)c(C(C)C)c1O [Example 38, 6-(benzofuran-2-yl)-4-hydroxy-3-isopropyl-5-methyl-2H-pyran-2-one] here?
Its IC50 is 10 to 100 µM.

Which IC50 [1] does the source give for Cc1c(-c2cc3ccccc3o2)oc(=O)c(C)c1OC(=O)C(C)C [Example 39, 6-(benzofuran-2-yl)-3,5-dimethyl-4-isobutyryloxy-2H-pyran-2-one] here?
Its IC50 is < 10 µM.

How did the IC50 [1] turn out when Cc1c(-c2cc3ccccc3o2)oc(=O)c(C)c1OC(=O)COc1ccccc1 [Example 42, 6-(benzofuran-2-yl)-3,5-dimethyl-4-phenoxyacetyloxy-2H-pyran-2-one] was run?
The IC50 was < 10 µM.

For Cc1c(-c2cc3ccccc3o2)oc(=O)c(C)c1OS(=O)(=O)C(F)(F)F [Example 43, 6-(benzofuran-2-yl)-3,5-dimethyl-4-trifluoromethanesulfonyloxy-2H-pyran-2-one], which IC50 [2] is on record?
Its IC50 is 10 to 100 µM.

With Cc1c(-c2cc3cc([N+](=O)[O-])ccc3o2)oc(=O)c(C)c1O [Example 45, 3,5-dimethyl-4-hydroxy-6-(5-nitrobenzofuran-2-yl)-2H-pyran-2-one] as the molecule, how does the IC50 [1] read?
The IC50 was < 10 µM.

For CCNc1ccc2oc(-c3oc(=O)c(C)c(O)c3C)cc2c1 [Example 46, 3,5-dimethyl-6-(5-(ethylamino)benzofuran-2-yl)-4-hydroxy-2H-pyran-2-one], which IC50 [2] is on record?
The IC50 was 10 to 100 µM.

For Cc1c(-c2cc3cc(N(C)C)ccc3o2)oc(=O)c(C)c1O [Example 48, 3,5-dimethyl-6-(5-(dimethylamino)benzofuran-2-yl)-4-hydroxy-2H-pyran-2-one], which IC50 [1] is on record?
Its IC50 is < 10 µM.

With Cc1c(-c2cc3cc(N(Cc4ccccc4)Cc4ccccc4)ccc3o2)oc(=O)c(C)c1O [Example 49, 6-(5-(dibenzylamino)benzofuran-2-yl)-3,5-dimethyl-4-hydroxy-2H-pyran-2-one] as the molecule, how does the IC50 [1] read?
Its IC50 is < 10 µM.

How did the IC50 [1] turn out when Cc1c(-c2cc3ccccc3o2)oc(=O)c(C)c1OC(=O)c1ccncc1 [Example 50, 6-(benzofuran-2-yl)-3,5-dimethyl-4-isonicotinoyloxy-2H-pyran-2-one] was run?
Its IC50 is < 10 µM.

For Cc1c(-c2cc3cc(OCc4ccccc4)ccc3o2)oc(=O)c(C)c1OC(=O)CNC(=O)OC(C)(C)C [Example 52, 6-(5-benzyloxybenzofuran-2-yl)-4-(2-(t-butoxycarbonylamino)acetyloxy)-3,5-dimethyl-2H-pyran-2-one], which IC50 [1] is on record?
Its IC50 is < 10 µM.

Which IC50 [1] does the source give for CC(=O)Nc1ccc(C(=O)Oc2c(C)c(-c3cc4cc(OCc5ccccc5)ccc4o3)oc(=O)c2C)cc1 [Example 54, 4-(4-(acetylamino)benzoyloxy)-6-(5-benzyloxybenzofuran-2-yl)-3,5-dimethyl-2H-pyran-2-one] here?
The IC50 was < 10 µM.

Cc1c(-c2cc3cc(OCc4ccccc4)ccc3o2)oc(=O)c(C)c1OC(=O)c1cccnc1 [Example 55, 6-(5-benzyloxybenzofuran-2-yl)-3,5-dimethyl-4-nicotinoyloxy-2H-pyran-2-one] was tested. Which IC50 [1] did it give?
The IC50 was < 10 µM.

Which IC50 [1] does the source give for Cc1c(-c2cc3cc(OCc4ccccc4)ccc3o2)oc(=O)c(C)c1OC(=O)c1ccncc1 [Example 56, 6-(5-benzyloxybenzofuran-2-yl)-3,5-dimethyl-4-isonicotinoyloxy-2H-pyran-2-one] here?
The IC50 was < 10 µM.

CCc1c(-c2cc3cc(OCc4ccccc4)ccc3o2)oc(=O)c(C)c1O [Example 57, 6-(5-benzyloxybenzofuran-2-yl)-5-ethyl-4-hydroxy-3-methyl-2H-pyran-2-one] was tested. Which IC50 [1] did it give?
Its IC50 is < 10 µM.
